Data from patent publication US5232917A, “Methods, compositions, and compounds for allosteric modulation of the GABA receptor by members of the androstane and pregnane series” (priority 1991, dated 1993).
Read-outs that look alike come from different tables or passages of the source.

Columns and labels:
[1] = molecular target: GABA receptor-chloride ionophore complex (GR complex); experiment: [35S]TBPS binding modulation assay; conditions: for Max. Inhib., maximal % of specifically bound [35S]-TBPS displaced: saturating concentrations of test compound
[2] = tested on: metrazol induced convulsions; experiment: Inhibition of metrazol induced convulsions (Table 2); assay type: in vivo, mice; conditions: Mus musculus
Protocol: Experiments were also performed to determine the physiological relevance of these interactions by measuring the ability of the compound of and used in the invention to modulate TBPS-induced convulsions in Swiss-Webster mice. […] The time to onset of myoclonus (presence of forelimb clonic activity) induced by TBPS was determined by observing each mouse for a period of 45 minutes. Significant differences between the time to onset in control mice vs. steroid-treated mice were determined by Student's t-test. […] The number of animals with tonic and/or clonic convulsions was recorded. In the maximal electroshock test, 50 mA of current at 60 Hz was delivered through corneal electrodes for 200 msec to induce tonic seizure. […] The ED50 (the dose at which the half-maximal effect occurs) was determined for each screen.
Adult male CFI mice (20-30g) were used in these studies. […] Percent protection against metrazol-induced seizures was plotted against time after administration of the compound. […] Ten to twelve mice were used per dose of test drug. […] The number of animals with tonic and/or clonic convulsions was recorded. The ability of the steroid to abolish the tonic component was defined as the endpoint. Sedative potential was determined by a rotorod test where the number of mice staying on a rotating (6 rpm) rod for ≥1 min. in each of three trials was determined.

[3] = molecular target: T1, estrogen receptor (Bos taurus, UniProt P49884); experiment: Inhibition of 3H-estradiol binding to bovine uteral estrogen receptors; conditions: read-out: % of inhibition of 3H-estradiol binding, B, competitor 10^-6 M; 0.25 nM 3H-estradiol
T1 construct: from tissue; host or cells: bovine uterus cytosol
T1 sequence (P49884 1-596): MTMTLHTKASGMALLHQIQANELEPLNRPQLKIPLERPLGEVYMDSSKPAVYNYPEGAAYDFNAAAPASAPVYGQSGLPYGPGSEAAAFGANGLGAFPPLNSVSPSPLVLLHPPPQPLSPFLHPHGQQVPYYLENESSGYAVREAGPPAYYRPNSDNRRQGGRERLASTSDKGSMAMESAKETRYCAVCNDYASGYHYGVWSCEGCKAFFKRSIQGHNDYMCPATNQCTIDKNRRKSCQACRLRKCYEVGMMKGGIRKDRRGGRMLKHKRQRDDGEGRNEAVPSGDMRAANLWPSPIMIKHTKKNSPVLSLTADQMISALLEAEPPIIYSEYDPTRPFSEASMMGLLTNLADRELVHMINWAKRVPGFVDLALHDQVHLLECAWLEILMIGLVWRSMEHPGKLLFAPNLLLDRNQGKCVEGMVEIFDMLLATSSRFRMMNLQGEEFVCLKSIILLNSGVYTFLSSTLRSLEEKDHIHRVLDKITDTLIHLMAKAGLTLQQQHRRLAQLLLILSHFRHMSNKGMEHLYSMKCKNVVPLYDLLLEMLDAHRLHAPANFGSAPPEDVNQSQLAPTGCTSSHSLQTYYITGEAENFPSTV
Protocol: (§1) The hormonal activity of drugs described herein was further studied through testing their potential estrogenic, progestinic, mineralocorticoid and glucocorticoid activities. These activities were analyzed by monitoring the ability of the drugs to inhibit binding of the steroid hormones to their respective hormone receptors.

[4] = tested on: GABA receptor complex (36Cl uptake, cerebral cortical synaptoneurosomes); experiment: GABA-stimulated 36Cl uptake in rat cerebral cortical synaptoneurosomes; assay type: biochemical, rat (male Sprague-Dawley)
Protocol: In addition, the ability of the BZ clonazepam to modulate ^36 Cl uptake in the presence or absence of 5α-pregnandiol was evaluated.
The homogenate was diluted to a final volume of 40 mL with buffer and filtered through three layers of Nylon mesh (160 μm).
Aliquots of membrane preparation (200 μL) were preincubated at 30° C. for 10 min. The interaction was initiated by the simultaneous addition of drugs/steroids and 0.2 mL ^36 Cl (New England Nuclear Boston, Mass., 0.55 mCi/mmol, 0.8 μCi/ml) resulting in a total incubation volume of 0.4 mL. Steroids and test drugs were solubilized in dimethylsufoxide (DMSO) and added to the reaction mixture in 2 μL aliquots. An equal volume of vehicle was always included in the control reaction mixture. The mixture was gently mixed and ^36 Cl uptake terminated after 5 sec by the of 5 mL of ice cold buffer containing 100 μM picrotoxin (Sigma Chem Co.) followed immediately by rapid filtration through glass fiber filters (Whatman GF/C) under vacuum. The filters were washed twice with 5 mL of ice-cold buffer and the filter-bound radioactivity quantitated by liquid scintillation spectrophotometry. Specific uptake was calculated by subtracting the amount of ^36 Cl bound to the filters in the absence of synaptoneurosomes from that observed in their presence. Percent enhancement represents percent increase in uptake over that of basal ^36 Cl uptake. Statistical comparisons utilized the analysis of variance (ANOVA).

[5] = molecular target: T2, progesterone receptor (Bos taurus, UniProt F1N712); experiment: Inhibition of 3H-progesterone binding to bovine uteral progesterone receptors
T2 construct: from tissue; host or cells: bovine uterus cytosol
T2 sequence (F1N712 1-914): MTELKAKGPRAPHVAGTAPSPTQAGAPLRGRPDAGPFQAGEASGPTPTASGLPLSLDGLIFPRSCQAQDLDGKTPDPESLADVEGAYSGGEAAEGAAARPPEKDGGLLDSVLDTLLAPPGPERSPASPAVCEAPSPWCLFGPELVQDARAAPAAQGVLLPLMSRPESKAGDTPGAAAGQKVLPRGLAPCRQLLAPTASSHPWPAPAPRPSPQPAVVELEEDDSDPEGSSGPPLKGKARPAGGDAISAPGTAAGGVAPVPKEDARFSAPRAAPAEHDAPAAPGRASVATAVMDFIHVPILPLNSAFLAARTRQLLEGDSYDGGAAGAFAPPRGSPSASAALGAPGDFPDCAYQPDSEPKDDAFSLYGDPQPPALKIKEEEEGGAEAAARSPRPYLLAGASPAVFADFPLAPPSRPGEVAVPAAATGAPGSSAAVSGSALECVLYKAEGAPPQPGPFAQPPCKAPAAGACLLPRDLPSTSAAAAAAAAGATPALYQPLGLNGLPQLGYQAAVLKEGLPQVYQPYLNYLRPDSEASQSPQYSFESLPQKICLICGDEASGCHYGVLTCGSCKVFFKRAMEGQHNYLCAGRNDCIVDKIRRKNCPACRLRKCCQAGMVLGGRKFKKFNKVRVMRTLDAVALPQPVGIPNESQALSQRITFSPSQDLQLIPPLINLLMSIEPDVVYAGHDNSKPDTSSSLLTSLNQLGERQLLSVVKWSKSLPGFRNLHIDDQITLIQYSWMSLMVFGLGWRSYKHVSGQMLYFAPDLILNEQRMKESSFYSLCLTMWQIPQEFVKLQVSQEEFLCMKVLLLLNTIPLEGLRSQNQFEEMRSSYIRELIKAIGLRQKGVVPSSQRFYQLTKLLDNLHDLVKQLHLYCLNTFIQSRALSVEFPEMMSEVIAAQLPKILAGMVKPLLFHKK
Protocol: as §1
For the data presented in Table 9, bovine uteri cytosol was isolated as they were for Table 7 and used for following binding to progesterone receptors by following the inhibition of ^3 H-progesterone, the natural ligand.

[6] = tested on: GABA receptor-chloride ionophore complex (GR complex); experiment: Dissociation kinetics of [35S]TBPS in rat cerebral cortical membranes; assay type: binding; conditions: alphaxalone 300 nM, 3α-OH-DHP 20 nM
[7] = tested on: number of light/dark transitions (anxiety); conditions: Blumstein and Crawley, 1983; Crawley et al.; cited from earlier work
[8] = 1982, cited from earlier work
[9] = tested on: picrotoxin-induced convulsions; set-up: key: NP: no protection; conditions: 1982, cited from earlier work
[10] = tested on: metrazol-induced convulsions; set-up: key: NP: no protection; conditions: 1982, cited from earlier work
[11] = tested on: (+)bicuculline-induced seizures; set-up: key: NP: no protection; conditions: 1982, cited from earlier work
[12] = tested on: strychnine-induced convulsions; conditions: 1982, cited from earlier work
[13] = tested on: maximal electroshock seizure; conditions: 1982, cited from earlier work
[14] = read-out: IC50, inhibition of [35S]-TBPS binding, +5 μM GABA, in the presence of 5 μM GABA
[15] = read-out: % of inhibition of 3H-progesterone binding, A, competitor 10^-5 M, 0.15 nM 3H-progesterone
[16] = read-out: % of inhibition of 3H-progesterone binding, B, competitor 10^-5 M, 0.25 nM 3H-progesterone
[17] = read-out: % of inhibition of 3H-progesterone binding, B, competitor 10^-6 M, 0.25 nM 3H-progesterone
[18] = Na pentobarbital 30 μM, 2 nM [35S]TBPS

C[C@H](O)[C@H]1CC[C@H]2[C@@H]3CC[C@H]4C[C@H](O)CC[C@]4(C)[C@H]3CC[C@]12C [5α-pregnanediol, 5α-pregnan-3α,20α-diol]
IC50 [1, 14]: 82 nM
IC50 ([1]; read-out: IC50, inhibition of [35S]-TBPS binding, No GABA, washed synaptoneurosomes, no GABA added): 359 nM
Max. Inhib., maximal % of specifically bound [35S]-TBPS displaced [1]: 52%
ED50 ([2]; iv, read-out: Anti-Metrazol ED50 (iv)): 40 mg/kg
inhibition at 1 µM [3]: 0%
% enhancement of basal 36Cl uptake ([4]; 5α-pregnanediol (3 μM), no GABA): 2 ± 1%
maximal enhancement of GABA-stimulated 36Cl uptake above GABA alone ([4]; 5α-pregnanediol at 3 μM, GABA 25 μM, FIG. 4): approximately 30%
concentration at which potentiation of GABA-stimulated 36Cl uptake reaches a plateau ([4]; FIG. 4): 3 µM
% enhancement of basal 36Cl uptake ([4]; GABA (25 μM) + 5α-pregnanediol (3 μM)): 162±4%
% enhancement of basal 36Cl uptake ([4]; GABA (25 μM) + 5α-pregnanediol (3 μM) + clonazepam (1 μM)): 192 ± 16%
3α-OH-DHP potentiation of GABA-stimulated 36Cl uptake as antagonized by 5α-pregnanediol ([4]; from 60% to this value above GABA (25 μM) alone, 3α-OH-DHP 500 nM + 5α-pregnanediol): 31%
effect on basal 36Cl uptake ([4]; steroid alone, no GABA): no effect
inhibition at 10 µM [5, 15]: 2%
inhibition at 10 µM [5, 16]: 3%
inhibition at 1 µM [5, 17]: 1%

CCCC(C)C1(CC)C(=O)NC(=O)NC1=O (stereo not drawn) [pentobarbital]
Total percentage of specific sites, rapid (R) ([6]; Na pentobarbital 30 μM): 48 ± 6%
Total percentage of specific sites, slow (S) ([6]; Na pentobarbital 30 μM): 61 ± 6%
K-1, rapidly dissociating component (R) [6, 18]: 0.158 ± 0.013 min⁻¹
K-1, slowly dissociating component (S) [6, 18]: 0.0186 ± 0.0015 min⁻¹
T1/2, rapidly dissociating component (R) [6, 18]: 4.4 ± 0.3 min
T1/2, slowly dissociating component (S) [6, 18]: 38 ± 3 min
biphasic dissociation mechanism of [35S]TBPS ([6]; pentobarbital 30 μM, FIGS. 2A, 2B): induces a biphasic dissociation mechanism
effect on number of light/dark transitions (literature) [7]: increase the number of transitions

O=C1NC(=O)C(c2ccccc2)(c2ccccc2)N1 [Phenytoin]
LD50 ([8]; Swinyard & Woodhead): 230 mg/kg
ED50 PICRO (picrotoxin) ([9]; Swinyard & Woodhead): NP
ED50 MTZ (metrazol) ([10]; Swinyard & Woodhead): NP
ED50 BIC (bicuculline) ([11]; Swinyard & Woodhead): NP
Maximum protection, STR (strychnine) ([12]; at 55-100 mg/kg, Swinyard & Woodhead): 50%

CCC1(c2ccccc2)C(=O)NC(=O)NC1=O [Phenobarbital]
ED50 MES (maximal electroshock) ([13]; Swinyard & Woodhead): 22 mg/kg
LD50 ([8]; Swinyard & Woodhead): 265 mg/kg
ED50 PICRO (picrotoxin) ([9]; Swinyard & Woodhead): 28 mg/kg
ED50 MTZ (metrazol) ([10]; Swinyard & Woodhead): 13 mg/kg
ED50 BIC (bicuculline) ([11]; Swinyard & Woodhead): 38 mg/kg
ED50 STR (strychnine) ([12]; Swinyard & Woodhead): 95 mg/kg

NC(=O)CCC/N=C(\c1ccc(Cl)cc1)c1cc(F)ccc1O [Progabide]
ED50 MES (maximal electroshock) ([13]; Worms et al.): 75 mg/kg
LD50 ([8]; Worms et al.): 3000 mg/kg
ED50 PICRO (picrotoxin) ([9]; convulsant i.v., Worms et al.): 105 mg/kg
ED50 MTZ (metrazol) ([10]; convulsant i.v., Worms et al.): 30 mg/kg
ED50 BIC (bicuculline) ([11]; convulsant i.v., Worms et al.): 30 mg/kg
ED50 STR (strychnine) ([12]; convulsant i.v., Worms et al.): 75 mg/kg

CC(C)(O)[C@H]1CC[C@H]2[C@@H]3CC[C@H]4C[C@H](O)CC[C@]4(C)[C@H]3CC[C@]12C [3α,20-dihydroxy-20-methyl-5α-pregnane]
IC50 [1, 14]: 65 nM
Max. Inhib., maximal % of specifically bound [35S]-TBPS displaced [1]: 45%
inhibition at 1 µM [3]: 0%

C[C@]12CC[C@@H](O)C[C@H]1CC[C@@H]1[C@@H]2CC[C@]2(C)[C@@H](C(=O)CO)CC[C@@H]12 [5β-PREGNAN-3α,21-DIOL-20-ONE]
IC50 [1, 14]: 100 nM
Max. Inhib., maximal % of specifically bound [35S]-TBPS displaced [1]: 100%
ED50 ([2]; inhibition of metrazol induced convulsions, read-out: Anti-Metrazol ED50): 10 mg/kg
inhibition at 1 µM [3]: 4%
inhibition at 10 µM [5, 15]: 19%
inhibition at 1 µM ([5]; read-out: % of inhibition of 3H-progesterone binding, A, competitor 10^-6 M, 0.15 nM 3H-progesterone): 6%
inhibition at 10 µM [5, 16]: 10%
inhibition at 1 µM [5, 17]: 2%

CCCC(CCC)C(=O)O [Valproate]
ED50 MES (maximal electroshock) ([13]; Swinyard & Woodhead): 272 mg/kg
LD50 ([8]; Swinyard & Woodhead): 1105 mg/kg
ED50 PICRO (picrotoxin) ([9]; Swinyard & Woodhead): 387 mg/kg
ED50 MTZ (metrazol) ([10]; Swinyard & Woodhead): 149 mg/kg
ED50 BIC (bicuculline) ([11]; Swinyard & Woodhead): 360 mg/kg
ED50 STR (strychnine) ([12]; Swinyard & Woodhead): 293 mg/kg
